Test results published in the supplement of paper PMC10307832.

Key:
Experiment in all cases: relative viability (nuclei count vs DMSO), 5 days (fraction); higher = more cells survive
Bortezomib + Foretinib = compound: CC(C)C[C@H](NC(=O)[C@H](Cc1ccccc1)NC(=O)c1cnccn1)B(O)O [Bortezomib] + COc1cc2c(Oc3ccc(NC(=O)C4(C(=O)Nc5ccc(F)cc5)CC4)cc3F)ccnc2cc1OCCCN1CCOCC1 [Foretinib] (partner 0.25 µM)
Method in brief: (§1)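 Lung cancer cell lines were pin-tool dosed in 1536-well plates on the day after seeding, with either a lone drug or a fixed anchor-drug dose plus five library-drug doses (not always all listed) in √10 steps. Nuclei were counted on 4× images after 5 days. Relative viability is the ratio of treated-well to vehicle-well nuclei counts, with each value a median of duplicate plates.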

Bortezomib + Crizotinib = compound: CC(C)C[C@H](NC(=O)[C@H](Cc1ccccc1)NC(=O)c1cnccn1)B(O)O [Bortezomib] + C[C@@H](Oc1cc(-c2cnn(C3CCNCC3)c2)cnc1N)c1c(Cl)ccc(F)c1Cl [Crizotinib] (partner 1 µM)
Method in brief: as §1

Obatoclax + Trametinib = compound: COC1=CC(c2cc3ccccc3[nH]2)=N/C1=C\c1[nH]c(C)cc1C [Obatoclax] + CC(=O)Nc1cccc(-n2c(=O)n(C3CC3)c(=O)c3c(Nc4ccc(I)cc4F)n(C)c(=O)c(C)c32)c1 [Trametinib] (partner 0.02 µM)
Method in brief: as §1

Obatoclax + AZD7762 = compound: COC1=CC(c2cc3ccccc3[nH]2)=N/C1=C\c1[nH]c(C)cc1C [Obatoclax] + NC(=O)Nc1cc(-c2cccc(F)c2)sc1C(=O)N[C@H]1CCCNC1 [AZD7762] (partner 0.2 µM)
Method in brief: as §1

Cell Line	relative viability (Bortezomib + Foretinib; first compound 0.0002 µM)	relative viability (Bortezomib + Foretinib; first compound 0.000632 µM)	relative viability (Bortezomib + Foretinib; first compound 0.002 µM)	relative viability (Bortezomib + Foretinib; first compound 0.006325 µM)	relative viability (Bortezomib + Foretinib; first compound 0.02 µM)	relative viability (Bortezomib + Crizotinib; first compound 0.0002 µM)	relative viability (Bortezomib + Crizotinib; first compound 0.000632 µM)	relative viability (Bortezomib + Crizotinib; first compound 0.002 µM)	relative viability (Bortezomib + Crizotinib; first compound 0.006325 µM)	relative viability (Bortezomib + Crizotinib; first compound 0.02 µM)	relative viability (Obatoclax + Trametinib; first compound 0.01 µM)	relative viability (Obatoclax + Trametinib; first compound 0.03162 µM)	relative viability (Obatoclax + Trametinib; first compound 0.1 µM)	relative viability (Obatoclax + Trametinib; first compound 0.3162 µM)	relative viability (Obatoclax + Trametinib; first compound 1 µM)	relative viability (Obatoclax + AZD7762; first compound 0.01 µM)	relative viability (Obatoclax + AZD7762; first compound 0.03162 µM)	relative viability (Obatoclax + AZD7762; first compound 0.1 µM)	relative viability (Obatoclax + AZD7762; first compound 0.3162 µM)	relative viability (Obatoclax + AZD7762; first compound 1 µM)
EBC-1	0.11	0.106	0.0957	0.0676	0.0605	0.172	0.172	0.162	0.106	0.0978										
A549	0.87	1.01	0.986	0.0286	0.0217	0.767	0.631	0.789	0.0392	0.0432										
NCI-H1563	0.874	0.966	0.803	0.526	0.475	0.894	0.902	0.732	0.522	0.443										
SK-MES-1	1.01	0.946	0.967	0.632	0.241	0.967	0.994	0.935	0.261	0.161	0.635	0.572	0.713	0.554	0.319					
IA-LM	1.26	1.1	1.16	0.0393	0.0142	0.996	0.699	0.559	0.0382	0.0338										
Calu-6	0.803	0.856	0.839	0.0564	0.0507	0.712	0.777	0.81	0.105	0.0708										
SK-LU-1	0.742	0.86	0.67	0.128	0.112	0.793	0.912	0.626	0.173	0.136	0.454	0.568	0.447	0.414	0.311					
NCI-H2023	0.911	0.802	1.06	0.282	0.0757	0.606	0.718	0.598	0.146	0.0674	0.59	0.575	0.595	0.362	0.226					
NCI-H1650	1.19	1.15	0.223	0.16	0.164	0.973	0.93	0.158	0.124	0.147	0.763	0.724	0.652	0.36	0.303					
SW 1573	0.943	0.907	1.02	0.327	0.0926	0.851	0.82	0.631	0.181	0.0539	0.669	0.606	0.346	0.144	0.152					
NCI-H661	1.04	1.03	1.01	0.559	0.219	1.1	1.03	1.16	0.82	0.269	0.585	0.553	0.593	0.493	0.473					
NCI-H2228	0.957	0.962	0.595	0.0857	0.0911	0.521	0.482	0.376	0.166	0.163	0.573	0.454	0.576	0.473	0.474					
NCI-H1648											0.52	0.406	0.559	0.51	0.457	0.701	0.754	1	0.77	0.886
COR-L23	0.934	0.931	0.874	0.0924	0.0681	0.669	0.581	0.595	0.0447	0.0472	0.541	0.607	0.44	0.252	0.194					
NCI-H1623	0.831	0.992	0.803	0.473	0.344															
NCI-H1299	1.09	1.06	1.17	0.416	0.121	0.943	0.965	0.969	0.39	0.152										
NCI-H520	0.871	0.773	0.58	0.184	0.148	0.913	0.759	0.894	0.102	0.102	0.675	0.777	0.86	0.439	0.269					
NCI-H522											0.683	0.765	0.805	0.783	0.867	0.823	0.664	0.915	0.92	0.883
NCI-H1703	0.324	0.342	0.211	0.153	0.176	0.561	0.495	0.133	0.101	0.081						0.135			0.138	0.126
ABC-1	0.917	0.874	0.284	0.229	0.204	1.1	0.693	0.22	0.178	0.195						0.639	0.749		0.817	0.839
UMC-11	0.801	0.97	0.96	0.449	0.175	0.503	0.63	0.591	0.225	0.0917	0.669	0.674	0.466	0.643	0.393					
COR-L 105	0.997	1	0.995	0.262	0.255	0.673	0.741	0.577	0.206	0.215	0.44	0.434	0.493	0.4	0.373					
NCI-H2009	1.14	1.21	1.23	0.237	0.0866	0.992	1.06	0.956	0.329	0.0389	0.32	0.313	0.252	0.304	0.192					
